Experiments:
[1] = tested on: DSS induced intestinal injury; test: DSS induced intestinal injury (survival, colon length, permeability, histology); format: in vivo, mouse; settings: for susceptibility to DSS (mortality): antibiotic treated mice, intrarectal administration every other day from one day prior to DSS
influenza A virus = format: in vivo, mouse
C. albicans [2] = test: Depletion of intestinal C. albicans with fluconazole in antibiotic cocktail treated mice; format: in vivo, mouse; settings: C. albicans mono-colonized mice, 10 days after adding fluconazole to antibiotic-supplemented drinking water
C. albicans [3] = settings: mouse, in vivo
C. albicans [4] = settings: mouse, in vivo; remark: listed apart in the source
[5] = tested on: allergic airway inflammation; test: House dust mite airway reactivity and inflammation; format: in vivo, mouse; settings: colonized mice, colonization eradicated with fluconazole
Method: Mice were anesthetized with ketamine/xylazine and hung by their front incisors on an angled stand. 100 μg house dust mite extract (Greer Laboratories) in 40 μL sterile saline was administered intratracheally. 10 days later, mice were challenged with the same amount of house dust mite extract. 48 hours after the second intratracheal challenge, airway resistance in response to inhaled methacholine (100 mg/mL) was measured using FlexiVent (SCIREQ). Saline perfused lungs were minced and digested with collagenase D (1 mg/mL) and DNAse (0.1 mg/mL) in DMEM media supplemented with 10% fetal bovine serum, 1% L-glutamine, 10 mM HEPES, 1% penicillin-streptomycin (Cellgro) for 30 minutes at 37° C. with gentle shaking (200 rpm). The tissue digest was then passed through a 70 μm filter to obtain single cell suspensions.

[6] = tested on: Th17 CD4+ T cells and circulating neutrophils; test: Systemic immune cell analysis (tetramer staining, cytokine production, IL-17RC, reactive oxygen) in colonized mice; settings: fluconazole treated colonized mice
Text: Fluorophore- or biotin-conjugated antibodies used mouse cell analysis are as follows: anti-CD4 (GK1.5, eBioscience), anti-CD8a (53-6.7, eBioscience), anti-CD11b (M1/70, Biolegend), anti-CD11c (N418, Biolegend), anti-F4/80 (BM8, eBioscience), anti-B220 (RA3-6B2, Biolegend), anti-CD44 (IM7, Biolegend), anti-CD45 (30F11, invitrogen), anti-Ly6G (1A8, BD bioscience), anti-Ly6C (HK1.4, Biolegend), anti-Gr1 (RB6-8C5, eBioscience), anti-IL-17RC (polyclonal IgG, R&D Systems), anti-FOXP3 (FJK-16S, eBioscience), anti-RORγt (Q31-378, BD bioscience), anti-T-bet (4B10, Biolegend), anti-IFN-γ (XMG1.2, eBioscience), anti-IL17A (TC 11-18H10.1, Biolegend), anti-IL17F (9D3.1C8, Biolegend). Fluorophore-conjugated antibodies were used for human cell analysis are as follows: anti-CD4 (OKT4, eBioscience), anti-CD15 (H198, invitrogen), anti-CD16 (3G8, Biolegend), anti-IL-17A (eBio64DEC17, eBioscience), anti-IL17F (O33-782, BD Bioscience), anti-IL17RC (309822, R&D Systems) with staining in the presence of Human Fc block (BD Bioscience). […] Single cell suspensions from spleen and peripheral lymph nodes were stained with APC conjugated I-Ab:2W1S55-68 tetramer at room temperature for 60 minutes, and enriched using anti-APC antibody conjugated magnetic beads (Militenyi Biotec) as described (Moon et al., Immunity 27:203-213 (2007)). Samples were acquired using an FACSCanto (BD) cytometer and analyzed using FlowJo software (Tree Star).

NF-κB = test: RAW-Blue stimulation and quantification of NF-κB activity; format: cell-based, murine; settings: 500 μg/mL
Method: RAW-Blue cells (InvivoGen) cells are derived from the murine RAW 264.7 macrophages with chromosomal integration of a secreted embryonic alkaline phosphatase reporter construct induced by NF-κB. 5×10^4 RAW-Blue cells were seeded 24 hours prior to addition of the indicated blocking antibody. One hour thereafter, mannan (Sigma) was added at a final concentration of 500 μg/mL. Supernatants were collected after 24 hours to quantify NF-κB activity by colorimetric assay using QUANTI-Blue reagent (InvivoGen).

[7] = antibiotic treated mice, intrarectal administration

With `OC(Cn1cncn1)(Cn1cncn1)c1ccc(F)cc1F` [fluconazole] the “survival and time-to-death after DSS challenge” value ([1]; mouse, in vivo) was “efficiently abolished the improved survival and delayed time-to-death”, the “protection against influenza A” value (influenza A virus; mouse, in vivo) was “similarly overturned” and the “recoverable fungi in the feces” value (C. albicans [2]) was “rapidly declined to undetectable levels”. The “fungal pathogen burden in the kidney after intravenous infection” value (C. albicans [3]) was “significantly increased fungal pathogen burden in the kidney”, the “C. albicans intestinal colonization” value (C. albicans [4]) was “efficiently eliminates C. albicans intestinal colonization” and the “accumulation of RORγt+ and IL-17 producing CD4+ T cells in the lungs” value [5] was “efficiently overturned”. The airway responsiveness [5] was “efficiently overturned”, the “IL-17RC expression by circulating leukocyte and neutrophils” value [6] was “similarly overturned” and the “RORγt expression by I-Ab:2W1S specific CD4+ T cells” value [6] was “reduced to background levels”. For the same compound, the “expansion of circulating neutrophils” value [6] was “similarly overturned”, the “neutrophil production of reactive oxygen species” value [6] was “similarly overturned” and the “number of CD4+ T cells with commensal C. albicans I-Ab:2W1S specificity” value [6] was “reduced to background levels”. For the same compound, the “IL-17A and IL-17F production by spleen and lymph node CD4+ T cells” value ([6]; heat-killed C. albicans stimulation) was “similarly overturned”.
For curdlan, the “susceptibility to DSS (mortality)” value [1] was “failed to improve mortality”.
With mannan the “susceptibility to DSS (mortality)” value [1] was “mitigated”, the “survival and accumulation of protective immune cells” value (influenza A virus; [7]) was “restored to levels comparable to C. albicans colonized controls” and the “susceptibility to influenza A virus infection” value (influenza A virus; [7]) was “mitigated”. For the same compound, the “mannan stimulated cell activation” value (NF-κB; with antibody blockade against TLR2) was “not significantly impacted”, the “mannan stimulated cell activation” value (NF-κB; with antibody blockade against dectin-2) was “not significantly impacted” and the “mannan stimulated cell activation” value (NF-κB; with antibody blockade against the mannose receptor) was “not significantly impacted”. The “mannan induced NF-κB” value (NF-κB; with neutralization of TLR4) was “significantly reduced” and the “mannan induced NF-κB” value (NF-κB; with neutralization of dectin-1) was “significantly reduced”.

Source: patent US20190183950A1, “COMMENSAL FUNGI AND COMPONENTS THEREOF FOR USE IN MODULATING IMMUNE RESPONSES” (priority 2017, published 2019)
